# From patent publication US10562842B2, “Use of polyaminoisoprenyl derivatives in antibiotic or antiseptic treatment” (UNIVERSITE D'AIX-MARSEILLE, priority 2011, dated 2020)
# How the values were obtained:
# [1] = tested on: Enterobacter aerogenes MDR Ea289; experiment: MIC of antibiotics ± test compound (MIC ratio), micro-broth dilution; assay type: cell-based; conditions: compound at MIC/4
# Method: The process consists of treating the MDR bacteria with the compounds of the invention in the presence of antibiotics.
# (§1) Susceptibilities to antibiotics and compounds were determined in microplates by broth dilution method, as previously described. Minimal Inhibitory Concentrations (MICs) were determined with an inoculum of 10^6 CFU in 200 μL of MH broth containing two-fold serial dilutions of each drug. […] All MIC determinations were repeated at least three times in independent experiments.
# (§2) The MICs of chloramphenicol±test compounds (MIC/4) were determined by the micro-broth dilution method (9). All MIC determinations were repeated at least three times in independent experiments. The MIC ratio corresponds to the ratio of the MIC of an antibiotic alone to the MIC of the same antibiotic in the presence of the tested compound (at MIC/4).
# The compounds listed in Table 2 were tested for their ability to decrease the chloramphenicol MIC of Ea289, an Enterobacter aerogenes MDR strain (1). Each compound was first tested at MIC/4. […] All MIC determinations were repeated at least three times in independent experiments.
# (§3) For reminder, the MIC ratio corresponds to the ratio of the MIC of the assessed antibiotic alone to the MIC of the same antibiotic in the presence of the tested compound (at MIC/4).
# Ea289ΔacrB (Ea294) = experiment: as above; assay type: cell-based, Enterobacter aerogenes; conditions: compound at MIC/4; Example 4
# Method: (§4) The Enterobacter aerogenes Ea289 strain is a Kans derivative of the MDR clinical isolate Ea27, the acrB mutant, EaEP294, was constructed from Ea289. Multidrug-resistant Salmonella enterica serovar Typhimurium DT104 strains (BN10055) was isolated from cattle in France, the isogenic acrB derivative mutant, BN10055ΔacrB, was constructed from BN10055. Strains were maintained at −80° C. in 25% (v/v) glycerol for cryoprotection. Bacteria were routinely grown in Mueller-Hinton (MH) broth at 37° C.
# as §1
# (§5) […] All MIC determinations were repeated at least three times in independent experiments. The MIC ratio corresponds to the ratio of the MIC of an antibiotic alone to the MIC of the same antibiotic in the presence of the tested compound (at MIC/4).
# as §3
# BN10055ΔacrB [2] = experiment: as above; assay type: cell-based, Salmonella enterica serovar Typhimurium; conditions: compound at MIC/4; Example 4
# Method: as §4, §1, §5, §3
# [3] = tested on: Salmonella Thyphimurium MDR BN10055; experiment: as above; assay type: cell-based, Salmonella enterica serovar Typhimurium; conditions: compound at MIC/4
# Method: as §4, §1, §5, §3
# ATCC 13048 [4] = experiment: as above; assay type: cell-based, Enterobacter aerogenes; conditions: compound at MIC/4; Example 4
# Method: as §1, §2, §3
# CM64 = experiment: as above; assay type: cell-based, Enterobacter aerogenes; conditions: compound at MIC/4; Example 4
# Method: as §1, §2, §3
# Ea27 [5] = experiment: as above; assay type: cell-based, Enterobacter aerogenes; conditions: compound at MIC/4; Example 4
# Method: as §1, §2, §3
# PA124 [6] = experiment: as above; assay type: cell-based, Pseudomonas aeruginosa; conditions: compound at MIC/4
# Method: as §1, §2, §3
# PAO1 [7] = experiment: as above; assay type: cell-based, Pseudomonas aeruginosa; conditions: compound at MIC/4
# Method: as §1, §2, §3
# AB1 = experiment: MIC by broth dilution (intrinsic MIC); assay type: cell-based; conditions: Acinetobacter baumannii
# Method: as §1
# AG100 = experiment: MIC by broth dilution (intrinsic MIC); assay type: cell-based; conditions: Escherichia coli AG100
# Method: as §1
# ATCC 13048 [8] = experiment: MIC by broth dilution (intrinsic MIC); assay type: cell-based; conditions: Klebsiella aerogenes, ATCC13048; Enterobacter ATCC 13048
# Method: as §1
# ATCC 19606 = experiment: MIC by broth dilution (intrinsic MIC); assay type: cell-based; conditions: Acinetobacter baumannii, ATCC19606; Acinetobacter ATCC 19606
# Method: as §1
# Ea27 [9] = experiment: MIC by broth dilution (intrinsic MIC); assay type: cell-based; conditions: Klebsiella aerogenes; Enterobacter Ea27
# Method: as §1
# PA124 [10] = experiment: MIC by broth dilution (intrinsic MIC); assay type: cell-based; conditions: Pseudomonas aeruginosa
# Method: as §1
# PAO1 [11] = experiment: MIC by broth dilution (intrinsic MIC); assay type: cell-based; conditions: Pseudomonas aeruginosa
# Method: as §1
# BN10055ΔacrB [12] = experiment: MIC by broth dilution (intrinsic MIC); assay type: cell-based, Salmonella enterica; conditions: Salmonella BN10055ΔacrB
# Method: as §1
# [13] = tested on: strain IV2571223 - Escherichia coli pig (sensible); experiment: MIC of antibiotics in the presence and absence of test compound, veterinary strains; assay type: cell-based; design: MIC for strain IV2571223, Doxycycline in the presence of test compound: unit not given beside the values; conditions: compound at the Concentration (μM) (2-50)
# Method: (§6) For each strain and each antibiotic, the MICs were determined in the presence and in the absence of one test compound.
# [14] = tested on: strain IV2570060 - Escherichia coli cattle (sensible); experiment: as above; assay type: cell-based; conditions: compound at the Concentration (μM) (4-50)
# Method: as §6
# [15] = tested on: strain IV2570533 - Escherichia coli cattle (resistant); experiment: as above; assay type: cell-based; conditions: compound at the Concentration (μM) (0.896-12.6)
# Method: as §6
# [16] = Tolerance in mice, intraperitoneal route; assay type: in vivo; conditions: day 2, Compound 5 8.8 mg/kg, 8 1.46 mg/kg, 11 0.45 mg/kg, 14 0.35 mg/kg, 12 6.3 mg/kg
# Method: Mice were administered with increasing doses of test compounds by intraperitoneal route.
# The mice were sacrificed on day 2 after the injection of the test compound and autopsied. No morphological anomaly was observed. Liver, lung, kidney and intestine of each mouse were fixed and analysed.
structure (smiles),measurement,setting,value
"CC(C)=CCC/C(C)=C/CC/C(C)=C/CNCCCN(C)CCCN [Compound 14, {3-[(3-Amino-propyl)-methyl-amino]-propyl}-((2E,6E)-3,7,11-trimethyl-dodeca-2,6,10-trienyl)-amine]",MIC ratio (*) on Ea289 Chl,"[1]; chloramphenicol, Set 2",8
same,MIC ratio Chloramphenicol E. aerogenes Ea289,[1]; Example 4,8
same,MIC ratio Doxycycline E. aerogenes Ea289,[1]; Example 4,64
same,MIC ratio Nalidixic acid E. aerogenes Ea289,[1]; Example 4,32
same,MIC ratio Chloramphenicol E. aerogenes Ea294,Ea289ΔacrB (Ea294),2
same,MIC ratio Doxycycline E. aerogenes Ea294,Ea289ΔacrB (Ea294),4
same,MIC ratio Nalidixic acid E. aerogenes Ea294,Ea289ΔacrB (Ea294),4
same,MIC ratio Chloramphenicol S. enterica BN1005ΔacrB,BN10055ΔacrB [2],2
same,MIC ratio Doxycycline S. enterica BN1005ΔacrB,BN10055ΔacrB [2],2
same,MIC ratio Nalidixic acid S. enterica BN1005ΔacrB,BN10055ΔacrB [2],4
same,MIC ratio (*) on BN10055 Chl,"[3]; chloramphenicol, Set 2",16
same,MIC ratio Chloramphenicol S. enterica BN10055,[3]; Example 4,16
same,MIC ratio Doxycycline S. enterica BN10055,[3]; Example 4,64
same,MIC ratio Nalidixic acid S. enterica BN10055,[3]; Example 4,128
same,MIC ratio (*) on BN10055 Dox,"[3]; doxycycline, Set 2",64
same,MIC ratio (*) on BN10055 Nal,"[3]; nalidixic acid, Set 2",128
same,MIC ratio Chloramphenicol E. aerogenes ATCC13048,ATCC 13048 [4],>32
same,MIC ratio Doxycycline E. aerogenes ATCC13048,ATCC 13048 [4],64
same,MIC ratio Oxacillin E. aerogenes ATCC13048,ATCC 13048 [4],>8
same,MIC ratio Chloramphenicol E. aerogenes CM64,CM64,16
same,MIC ratio Oxacillin E. aerogenes CM64,CM64,>8
same,MIC ratio Chloramphenicol E. aerogenes Ea27,Ea27 [5],>4
same,MIC ratio Doxycycline E. aerogenes Ea27,Ea27 [5],32
same,MIC ratio Oxacillin E. aerogenes Ea27,Ea27 [5],1
same,MIC ratio Cefepime Pseudomonas aeruginosa PA124,PA124 [6],1
same,MIC ratio Chloramphénicol Pseudomonas aeruginosa PA124,PA124 [6],128
same,MIC ratio Doxycycline Pseudomonas aeruginosa PA124,PA124 [6],>32
same,MIC ratio Tetracycline Pseudomonas aeruginosa PA124,PA124 [6],8
same,MIC ratio Cefepime Pseudomonas aeruginosa PAO1,PAO1 [7],1
same,MIC ratio Doxycycline Pseudomonas aeruginosa PAO1,PAO1 [7],>16
same,MIC,AB1,62 µM
same,MIC,AG100,62 µM
same,MIC,ATCC 13048 [8],31 µM
same,MIC,ATCC 19606,62 µM
same,MIC,Ea27 [9],31 µM
same,MIC,PA124 [10],250 µM
same,MIC,PAO1 [11],250 µM
same,"intrinsic MIC, BN10055ΔacrB",BN10055ΔacrB [12],15 µM
same,"MIC for strain IV2571223, Doxycycline in the presence of test compound",[13],0.03125
same,"MIC for strain IV2571223, Tylosine in the presence of test compound",[13],2
same,"MIC for strain IV2570060, Doxycycline in the presence of test compound",[14],0.0625
same,"MIC for strain IV2570060, Tylosine in the presence of test compound",[14],8
same,"MIC for strain IV2570533, Doxycycline in the presence of test compound",[15],1
same,"MIC for strain IV2570533, Tylosine in the presence of test compound",[15],8
same,"tissue anomaly (liver, lung, kidney, intestine)",[16],no significant tissue anomaly
